From patent publication US5164295A, “Method for identifying amyloid protein-extracellular matrix protein affinity altering compounds” (The Upjohn Company, priority 1991, dated 1992)
“And” between values parts separate entries of the source, which are not always exact repeats. Identical values can stand only once. Like-named read-outs stand apart in the source and are kept apart here.

Columns and labels:
AAP695 /s = test: ELISA: binding of free HSPG (intact or core protein) to immobilized AAP695 /s
Procedure: (§1) To study the interaction between HSPG and either AAP770 /s, AAP751 /s, AAP695 /s or fibronectin, the AAP proteins and fibronectin were individually immobilized on polystyrene wells and incubated with increasing concentrations of purified HSPG. Fibronectin was used as a test protein because of its known affinity for HSPG. […] To address this concern, the purified protein core of HSPG in place of the intact proteoglycan was utilized to examine the role of the protein component.
(§2) The assay used in studying the interaction between HSPG and protein ligands was an ELISA technique. Briefly, polystyrene micro-titer plates (Linbro, Flow Lab Inc.) were coated with a 100 μl solution, containing 1 μg/ml of the protein of interest (one of the three forms of AAP or fibronectin) in 20 mM NaHCO3 buffer pH 9.6. After incubation overnight at 4° C., the plates were rinsed with 0.15M NaCl, 20 mM Tris-Cl pH 7.5 (TBS). The plates were then incubated with 150 μl of 1% BSA in TBS for 2 hours at 37° C. to block the residual hydrophobic surface on the wells. After rinsing with TBS containing 0.05% (w/v) Tween 20 (TBS-Tween), 100 μl of various concentrations of HSPG in TBS-Tween were added. The plates were left overnight at 4° C., to permit maximum binding of HSPG to the coated proteins. The plates were then washed extensively and incubated for 2 hours at 37° C., with 100 μl of anti-HSPG diluted in TBS-Tween containing 0.1% BSA. […] Finally, after further washing, the bound antibodies were detected by adding an alkaline phosphatase substrate solution (100 μl) containing 2 mg/ml p-nitrophenyl phosphate, 0.1 mM ZnCl2, 1 mM MgCl2 and 100 mM glycine pH 10. […] The absorbance of the released p-nitrophenol was measured at 405 nm with a Titertek Multiscan/MCC 340 (Flow Lab. Ltd.). The amounts of HSPG bound were determined by the net OD405 after substracting the OD from the blank wells in which the HSPG incubation step was omitted. When the actual amounts of HSPG bound were to be calculated, a set of standards (0.05-50 ng/well) of HSPG in NaHCO3 buffer were pre-coated into wells on the same plates as the test proteins. […] The actual amounts of HSPG bound to the test proteins were calculated from the OD405 standard curve produced by the HSPG standards using a Titersoft II E.J.A. software program (Flow Lab. Ltd.). […]
To determine the Kd of the protein-HSPG complex, the binding data were analyzed assuming a thermodynamic equilibrium for the formation of the complex, B, from the ligand in solution, HSPG, and the uncomplexed protein adsorbed to the microtiter well, R, according to the equation: [formula] Due to the nature of the experimental design, nonspecific binding could not be measured directly. […]

AAP751 /s = test: ELISA: binding of free HSPG (intact or core protein) to immobilized AAP751 /s; details: for Kd: absence of test compounds, mean ± SD, read-out: Kd of HSPG (intact or core protein) complex with AAP751 /s
Procedure: as §1
as §2, with “added.” for “added. The plates were left overnight at 4° C., to permit maximum binding of HSPG to the coated proteins. The plates were then washed extensively and incubated for 2 hours at 37° C., with 100 μl of anti-HSPG diluted in TBS-Tween containing 0.1% BSA.”

AAP770 /s = test: ELISA: binding of free HSPG to immobilized AAP770 /s; details: absence of test compounds, mean ± SD, read-out: Kd of HSPG complex with AAP770 /s
Procedure: as §1
(§3) The assay used in studying the interaction between HSPG and protein ligands was an ELISA technique. […] Finally, after further washing, the bound antibodies were detected by adding an alkaline phosphatase substrate solution (100 μl) containing 2 mg/ml p-nitrophenyl phosphate, 0.1 mM ZnCl2, 1 mM MgCl2 and 100 mM glycine pH 10. […] The absorbance of the released p-nitrophenol was measured at 405 nm with a Titertek Multiscan/MCC 340 (Flow Lab. Ltd.). The amounts of HSPG bound were determined by the net OD405 after substracting the OD from the blank wells in which the HSPG incubation step was omitted. When the actual amounts of HSPG bound were to be calculated, a set of standards (0.05-50 ng/well) of HSPG in NaHCO3 buffer were pre-coated into wells on the same plates as the test proteins. […]

fibronectin = test: ELISA: binding of free HSPG (intact or core protein) to immobilized fibronectin; set-up: species or system bovine; details: absence of test compounds; mean ± SD; read-out: Kd of HSPG (intact or core protein) complex with fibronectin
Excerpt: Fibronectin (from bovine plasma), heparin (grade II from porcine intestinal mucosa, average molecular weight=[…]), heparan sulfate, chondroitin sulfate, dextran sulfate, BSA, and alkaline phosphatase substrate were obtained from Sigma, St. Louis, Mo. Alkaline phosphatase conjugated goat anti-rabbit IgG was obtained from Boehringer-Manneheim, and heparitinase from ICN Biochemicals.
To study the interaction between HSPG and either AAP770 /s, AAP751 /s, AAP695 /s or fibronectin, the AAP proteins and fibronectin were individually immobilized on polystyrene wells and incubated with increasing concentrations of purified HSPG. Fibronectin was used as a test protein because of its known affinity for HSPG. […]
as §3, with “omitted.” for “omitted. When the actual amounts of HSPG bound were to be calculated, a set of standards (0.05-50 ng/well) of HSPG in NaHCO3 buffer were pre-coated into wells on the same plates as the test proteins.”

BSA = test: ELISA control: binding of HSPG to BSA coated wells; set-up: species or system bovine
Procedure: The assay used in studying the interaction between HSPG and protein ligands was an ELISA technique. Briefly, polystyrene micro-titer plates (Linbro, Flow Lab Inc.) were coated with a 100 μl solution, containing 1 μg/ml of the protein of interest (one of the three forms of AAP or fibronectin) in 20 mM NaHCO3 buffer pH 9.6. After incubation overnight at 4° C., the plates were rinsed with 0.15M NaCl, 20 mM Tris-Cl pH 7.5 (TBS). The plates were then incubated with 150 μl of 1% BSA in TBS for 2 hours at 37° C. to block the residual hydrophobic surface on the wells. After rinsing with TBS containing 0.05% (w/v) Tween 20 (TBS-Tween), 100 μl of various concentrations of HSPG in TBS-Tween were added. […] Finally, after further washing, the bound antibodies were detected by adding an alkaline phosphatase substrate solution (100 μl) containing 2 mg/ml p-nitrophenyl phosphate, 0.1 mM ZnCl2, 1 mM MgCl2 and 100 mM glycine pH 10. […] The absorbance of the released p-nitrophenol was measured at 405 nm with a Titertek Multiscan/MCC 340 (Flow Lab. Ltd.). The amounts of HSPG bound were determined by the net OD405 after substracting the OD from the blank wells in which the HSPG incubation step was omitted. When the actual amounts of HSPG bound were to be calculated, a set of standards (0.05-50 ng/well) of HSPG in NaHCO3 buffer were pre-coated into wells on the same plates as the test proteins. […]

Kd (AAP695 /s; absence of test compounds, mean ± SD, listed as HSPG, read-out: Kd of HSPG (intact or core protein) complex with AAP695 /s): 0.88 nM and ~0.9 nM
Kd (AAP695 /s; absence of test compounds, mean ± SD, listed as intact HSPG, read-out: Kd of HSPG (intact or core protein) complex with AAP695 /s): 0.9 ± 0.25 nM
Kd (AAP695 /s; absence of test compounds, mean ± SD, read-out: Kd of HSPG (intact or core protein) complex with AAP695 /s): 0.88 ± 0.35 nM
Kd (AAP695 /s; heparin 400 μg/ml, read-out: Kd of HSPG (intact or core protein) complex with AAP695 /s in presence of heparin): 3.56 ± 1.78 nM
Kd (AAP751 /s; listed as HSPG): 10.2 nM and 9 to 10 nM
Kd (AAP751 /s): 10.2 ± 2.45 nM
Bmax, total binding capacity (AAP751 /s; typical experiment using AAP751 /s): 15.9±0.2 ng HSPG
Kd (AAP770 /s; listed as HSPG): 9.13 nM and 9 to 10 nM
Kd (AAP770 /s): 9.13 ± 1.06 nM
Kd (fibronectin): 0.98 nM
binding of HSPG to BSA in comparison to the tested proteins (BSA): negligible
Substance: heparan sulfate proteoglycan [Intact HSPG]
